Data published in US11911397B2, “Anordrin compositions and methods for treating diseases” (Zhejiang Jiachi Development Pharmaceuticals LTD, priority 2014, dated 2024).

What was measured:
[1] = tested on: 8S and 4S estrogen-binding complexes in uterine cytosol; conditions: cited from earlier work
[2] = tested on: ovariectomized (OVX) mice; experiment: ovariectomized (OVX) mice model; type: in vivo; conditions: for fat deposits in paraffin sections of liver / body mass / total cholesterol (TC) in liver / triglyceride (TG) in liver: OVX mice; for body mass: after 6 weeks, intragastric; for total cholesterol (TC) in liver / triglyceride (TG) in liver: compared to controls
[3] = target: T1, ER-α ligand binding domain (GST-ER-α-LBD) (Homo sapiens, UniProt P03372); experiment: 3H-E2 competition assay on GST-ER-α-LBD beads; conditions: for blocking of [H^3-E2] binding to GST-ER-α-LBD on beads: 50 nM, 0.5 nM [H^3-E2], 1 μg GST-ER-α-LBD
T1 construct: made in house; host or cells: E. coli
T1 sequence (P03372 311-547 limits assumed): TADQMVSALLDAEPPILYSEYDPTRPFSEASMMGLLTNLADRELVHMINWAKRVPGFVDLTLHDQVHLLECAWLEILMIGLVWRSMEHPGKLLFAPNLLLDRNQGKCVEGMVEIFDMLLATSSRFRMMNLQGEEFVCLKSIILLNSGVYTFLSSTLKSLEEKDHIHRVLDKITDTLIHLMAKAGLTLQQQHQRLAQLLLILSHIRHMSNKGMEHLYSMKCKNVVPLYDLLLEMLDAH

[4] = tested on: Bcl-2 expression in MCF-7 cells; experiment: Bcl-2 expression in MCF-7 cells (western blotting, RT-qPCR); type: cell-based; conditions: for increase of Bcl-2 mRNA transcription: 6 μM dinordrin, RT-qPCR
[5] = tested on: BRCA1, ApoD, COX7a mRNA in MCF-7 cells; experiment: RT-qPCR of genes regulated by the estrogen classic pathway in MCF-7 cells; type: cell-based; conditions: for expression of ApoD: FIG. 13B
MCF-7 cells [6] = experiment: MCF-7 cell growth, cell counting; type: cell-based
Protocol: To test this hypothesis we induced MCF-7 cells in IL-free medium for two months. Drug sensitivity of cell growth was tested by counting the cell number after 144 h of inoculation (FIG. 13A).

T47D cells = experiment: EGF-induced T47D cell growth; type: cell-based; conditions: 7.5 μM, 10 ng/ml EGF
ER-α-36 = target: T2, ER-α-36 (Homo sapiens, UniProt P03372); experiment: 3H-E2 binding to ER-α-36 expressed in HEK-293 cells; conditions: blocking at low, facilitating at higher concentrations
T2 construct: expressed in transfected cells; host or cells: HEK-293
From the text: MIESs effect their regulation of cell proliferation, migration, cell-cell junction and matrix, and energy metabolism through a series of scaffold protein complexes. ER-α association with the plasma membrane is facilitated by palmitoylation at residue C447 in the LBD. […] To verify this, we measured the binding affinity of 3H-E2 with GST-ER-α-36 expressed and purified from E. coli. […] In contrast, 3H-E2 does bind to GST-ER-α-46, which has a full length ER-α-LBD.
Isolation of microsome and Drug competition assay: Cells were harvested and lysed in TE buffer (50 mM Tris (pH8.0), 5 mM EDTA, 2 mM PMSF and protease inhibitor cocktail (Sigma)) for 30 min with vortexing every 5 min. 80% glycerol in TE buffer was added to cell lysates to reach 20% and centrifuged at 800 g for 5 min. The supernatant was transferred to new tubes and total protein concentration was adjusted to 5 mg/ml. Drugs and ^3H-E2 were added to 1 ml protein solution and incubated at 4° C. for 2 hours. Microsome was precipitated at 25 krpm for 2 hours. Bound ^3H-E2 was measured using GM meter.

MDA-MB-231 cells [7] = experiment: MDA-MB-231 cell growth, cell counting; type: cell-based; conditions: 6 μM anordrin
Hec1A cells = experiment: Hec1A cell proliferation; type: cell-based
Ishikawa cells = experiment: Ishikawa cell proliferation; type: cell-based
HepG2 cells = experiment: HepG2 cell growth; type: cell-based
[8] = tested on: ERK phosphorylation in HepG2 cells; experiment: phosphorylation of ERK in HepG2 cells; type: cell-based; conditions: non-monotonic dose response
MDA-MB-231 cells [9] = experiment: MDA-MB-231 cell migration (matrixgel / transwell); type: cell-based; conditions: 6 μM anordrin
Protocol: As anordrin has been reported as an anti-angiogenic agent resulting in inhibition of cell migration and invasion (16), we studied its ability to modulate MDA-MB-231 cell migration using matrixgel. […] After 20 hours migrated cells were stained and quantified using a plate reader at 560 nm.

[10] = tested on: integrin β1 in MCF-7 cells; experiment: integrin β1 cell surface distribution and expression in MCF-7 cells; type: cell-based; conditions: 6 μM
Protocol: (§1) MCF-7 cells were harvested and lysed in RIPA buffer. 40 μg total protein of cellular lysate was used for Western blotting to determinate the expression level of integrin β1.
(§2) Integrin translocation to the cell surface is regulated by the p130Cas scaffold protein complex to play a fundamental role in cell attachment and migration. Integrin α3β1 has been reported to be involved in MCF-7 cell attachment as well as MDA-MB-231 cell migration (25, 26). […] To verify the hypothesis, we treated MCF-7 and MDA-MB-231 cells with 6 μM anordrin for 16 hours and measured cell surface integrin β1 distribution using a FITC-labeled anti-integrin β1 antibody. […] Taken together, we conclude that anordrin or analog thereof (such as […]) binds to membrane-associated ER to inhibit cell migration and proliferation.
(§3) Transwell and flow cytometry assay: Cells were starved for 48 hours in phenol red free medium containing 5% charcoal-stripped FBS, and then changed into phenol red free medium for an additional 24 hours. Transwell was performed following the Chemicon kit instructions (CAT #ECM551). Briefly, cells were trypsinized, washed using 1×DPBS containing Ca2+ and Mg2+ (Sigma) and resuspensed in serum and phenol red free medium at a cell density of 0.5×10^6 cells/ml. […]

[11] = tested on: integrin β1 in MDA-MB-231 cells; experiment: integrin β1 cell surface distribution and expression in MDA-MB-231 cells; type: cell-based; conditions: 6 μM
Protocol: as §1, §2, §3

MCF-7 cells [12] = experiment: glucose consumption and medium pH of MCF-7 cells; type: cell-based; conditions: for glucose concentration of media / glucose consumption: 60 hours
db/db mice = experiment: blood glucose in db/db mice; type: in vivo
MCF-7 cells [13] = experiment: 2-NBDG glucose uptake and cellular ATP in MCF-7 cells; type: cell-based
Protocol: Glucose uptake was measured using fluorescently labeled glucose (2-NBDG), and ATP concentrations were measured using an ATP analysis kit.

ER-β = target: T3, ER-β (Homo sapiens, UniProt Q92731); experiment: 3H-E2 binding to ER-β fusion protein expressed in HEK-293 cells; conditions: 100 nM anordrin, 1 nM 3H-E2, HEK-293 lysate
T3 construct: expressed in transfected cells; host or cells: HEK-293
Protocol: (§4) Binding and competition assays: GST and GST-ER-α fusion proteins were expressed in E. coli and purified using glutathione beads. 2 μg/ml GST (40-80 nM) fusion proteins in 1 ml TE buffer was mixed with 1 nM ^3H-E2 at 4° C. for 2 h. Radioactivity on beads was measured using a GM meter. HEK-293 cells were transfected to express GST fusion proteins of ER-β or GPER1. Cells were lysed in 1×TE buffer containing protease inhibitor cocktail (sigma) on ice for 30 min, 80% glycerol was added to reach 20% glycerol. Tubes were centrifuged at 300 g for 5 min and supernatant was collected. Protein concentration was measured by Bio-rad protein concentration assay kit. 100 nM anordrin and 1 nM^3H-E2 was added to 1 ml lysate (5 mg/ml total protein) at 4° C. for 2 h. Radioactivity on beads was measured using GM meter.

GPER1 = target: T4, GPER1 (Homo sapiens, UniProt Q99527); experiment: 3H-E2 binding to GPER1 fusion protein expressed in HEK-293 cells; conditions: 100 nM anordrin, 1 nM 3H-E2, HEK-293 lysate
T4 construct: expressed in transfected cells; host or cells: HEK-293
Protocol: as §4

[14] = tested on: patients whose cancers were potentially caused by EGF/Her1; conditions: patients who failed to be inhibited by an EGF competitor; cited from earlier work
[15] = tested on: endometrial epithelial cells; experiment: endometrial epithelial cells in mice (histology); conditions: for endometrial epithelial cell proliferation: monolayer vs polylayer
From the text: Preparation of paraffin sections and HE staining: The tissue of mice was excised by surgery and fixed using 2.5% formaldehyde in 1×PBS.

normal mice = normal mice treated with tamoxifen, anordrin or both
[16] = charcoal-stripped FBS in phenol red free DMEM
[17] = anordrin 0.45 μg/g in combination with tamoxifen 4.5 μg/g per day
[18] = tamoxifen 4.5 μg/g body mass per day, 9 weeks

T2 sequence (P03372 1-310 isoform P03372-4): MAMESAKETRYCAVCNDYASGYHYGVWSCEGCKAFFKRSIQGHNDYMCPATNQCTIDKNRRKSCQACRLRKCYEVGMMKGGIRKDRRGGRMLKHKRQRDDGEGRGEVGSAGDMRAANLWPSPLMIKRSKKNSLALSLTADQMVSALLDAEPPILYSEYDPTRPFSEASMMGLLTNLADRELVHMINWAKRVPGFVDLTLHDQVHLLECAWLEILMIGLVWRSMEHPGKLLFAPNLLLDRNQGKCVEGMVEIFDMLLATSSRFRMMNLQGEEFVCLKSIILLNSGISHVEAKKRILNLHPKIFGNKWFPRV
T3 sequence (Q92731 whole entry, species assumed, the tested form may be a part): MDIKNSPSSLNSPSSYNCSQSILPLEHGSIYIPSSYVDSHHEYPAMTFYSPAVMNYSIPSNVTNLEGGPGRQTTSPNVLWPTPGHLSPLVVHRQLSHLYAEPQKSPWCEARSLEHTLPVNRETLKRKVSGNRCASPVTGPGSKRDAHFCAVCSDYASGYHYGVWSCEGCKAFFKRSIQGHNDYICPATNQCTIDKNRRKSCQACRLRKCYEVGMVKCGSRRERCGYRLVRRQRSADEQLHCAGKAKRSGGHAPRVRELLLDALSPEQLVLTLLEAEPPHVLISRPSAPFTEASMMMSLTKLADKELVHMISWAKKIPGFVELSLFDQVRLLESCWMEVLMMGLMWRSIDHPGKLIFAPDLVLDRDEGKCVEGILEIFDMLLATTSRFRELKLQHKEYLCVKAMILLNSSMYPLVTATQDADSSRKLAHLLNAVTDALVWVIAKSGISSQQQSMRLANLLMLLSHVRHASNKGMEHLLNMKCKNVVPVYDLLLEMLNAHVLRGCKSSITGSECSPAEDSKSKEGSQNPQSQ
T4 sequence (Q99527 whole entry, species assumed, the tested form may be a part): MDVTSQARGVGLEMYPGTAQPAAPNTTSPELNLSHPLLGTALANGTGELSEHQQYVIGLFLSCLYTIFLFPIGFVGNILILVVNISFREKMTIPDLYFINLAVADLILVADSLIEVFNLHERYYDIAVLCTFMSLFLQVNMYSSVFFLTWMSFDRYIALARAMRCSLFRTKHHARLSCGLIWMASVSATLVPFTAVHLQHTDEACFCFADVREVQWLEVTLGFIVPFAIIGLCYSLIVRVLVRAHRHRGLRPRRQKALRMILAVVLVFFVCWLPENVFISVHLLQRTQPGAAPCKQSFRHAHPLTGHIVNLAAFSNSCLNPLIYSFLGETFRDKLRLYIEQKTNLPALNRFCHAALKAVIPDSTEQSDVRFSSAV

C#C[C@@]1(O)C[C@@H]2CC[C@@H]3[C@H](CC[C@@]4(C)[C@H]3CC[C@@]4(O)C#C)[C@@]2(C)C1 [Anordiol, 2β,7α-diethyl-A-nor-5α-androstane-2α,17β-diol]
binding to estrogen-binding complexes 4S and 8S [1]: preferentially bind the 8S complex

C[C@]12CC[C@@H]3c4ccc(O)cc4CC[C@H]3[C@@H]1CC[C@@H]2O [E2, 17-beta estradiol]
fat deposits in paraffin sections of liver [2]: smaller fat deposits
body mass [2]: remained unchanged
total cholesterol (TC) in liver [2]: decreased amounts
triglyceride (TG) in liver [2]: decreased amounts

C#C[C@@]1(OC(=O)CC)C[C@@H]2CC[C@@H]3[C@H](CC[C@@]4(C)[C@H]3CC[C@]4(C#C)OC(=O)CC)[C@@]2(C)C1 [anordrin, 2α,17α-diethynyl-A-nor-5α-androstane-2β,17β-diol dipropionate]
inhibition of 3H-E2 binding to GST-ER-α-LBD ([3]; 50 nM compound, 0.5 nM 3H-E2, 2 μg GST-ER-α-LBD): could not inhibit
blocking of [H^3-E2] binding to GST-ER-α-LBD on beads [3]: no inhibition
increase of Bcl-2 mRNA transcription [4]: 3.18%±3.22%
Bcl-2 mRNA expression ([4]; 7.5 μM, data not shown): not affected
Bcl-2 protein expression ([4]; 7.5 μM, western blotting): not affected
Bcl-2 protein expression [4, 16]: Neither tamoxifen nor anordrin or analog thereof (such as anordrin) were found to affect Bcl-2 protein expression
mRNA level of BRCA1 [5]: did not significantly affect
effect on the ability of tamoxifen to inhibit MCF-7 cell growth (MCF-7 cells [6]; 200 nM anordrin in the culture medium): did not affect
inhibition at 7.5 µM (MCF-7 cells [6]; Homo sapiens, MCF7, 7.5 μM): > 50%
EGF-induced cell growth (T47D cells): blocked the increase in cell growth
effect on 3H-E2 binding to ER-α-36 (ER-α-36): biphasic effect
MDA-MB-231 cell growth (MDA-MB-231 cells [7]): inhibits MDA-MB-231 cell growth significantly
doses inhibiting proliferation (Hec1A cells): 2 to 8 µM
doses inhibiting proliferation (Ishikawa cells): 2 to 8 µM
concentration showing the greatest degree of inhibition of cell growth (HepG2 cells): around 7 μM
shape of dose response of cell growth inhibition (HepG2 cells): biphasic dose response
concentration of maximal phosphorylation of ERK [8]: 10 µM
MDA-MB-231 cell migration in medium containing E2 (MDA-MB-231 cells [9]; 10 nM E2): significantly inhibited
MDA-MB-231 cell migration in medium containing EGF (MDA-MB-231 cells [9]; 10 ng/ml EGF): significantly inhibited
expression level of integrin β1 [10]: did not affect
integrin β1 distribution to the plasma membrane ([10]; 16 hours): down-regulated
expression level of integrin β1 [11]: did not affect
integrin β1 distribution to the plasma membrane ([11]; 16 hours): down-regulated
effect on tamoxifen inhibition of glucose metabolism (MCF-7 cells [12]; 200 nM anordrin with 1 μM tamoxifen, MCF-7, 60 hours): reversed the inhibitory effect
pH of culture medium (MCF-7 cells [12]; MCF-7 cells): decreased pH
glucose concentration of media / glucose consumption (MCF-7 cells [12]; MCF-7 cells): lower
whole blood glucose / glucose consumption (db/db mice; female db/db mice, 0.45 μg/g body mass daily, 4 weeks): improved glucose consumption
glucose consumption (db/db mice; male db/db mice, data not shown): no affect
fat deposits in paraffin sections of liver [2]: smaller fat deposits
body mass [2]: remained unchanged
total cholesterol (TC) in liver [2]: decreased amounts
triglyceride (TG) in liver [2]: decreased amounts
bone marrow cells ([2]; ovariectomized mice): prevent decrease
serum Ca^2+ ([2]; ovariectomized mice): increased
serum Pi ([2]; ovariectomized mice): decreased
uterine atrophy ([2]; ovariectomized mice): prevent uterine atrophy
bone density ([2]; ovariectomized mice, micro-CT): increased
2-NBDG uptake (MCF-7 cells [13]): enhanced
cellular ATP concentrations (MCF-7 cells [13]): enhanced
3H-E2 binding to ER-β fusion protein (ER-β): inhibits
3H-E2 binding to GPER1 fusion protein (GPER1): inhibits
quality of life and lifespan of patients [14]: improve the quality of life and increase the lifespan
hypertrophy of endometrial epithelial cells [15]: causes hypertrophy
endometrial epithelial cell proliferation [15]: does not induce
tamoxifen-induced NASH syndrome phenotype (normal mice; [17]): completely reversed
tamoxifen-induced body weight phenotype (normal mice; [17]): completely reversed
tamoxifen-induced liver TG phenotype (normal mice; [17]): completely reversed
increased serum TG levels induced by tamoxifen (normal mice; mice): reverse
increased serum viscosity induced by tamoxifen (normal mice; mice): reverse
tamoxifen-induced uterine and vaginal atrophy (normal mice; tamoxifen treated mice): decrease the extent

C#C[C@@]1(OC(=O)CC)C[C@@H]2CC[C@@H]3[C@H](CC[C@@]4(C)[C@H]3CC[C@]4(C#C)OC(=O)CC)[C@H]2C1 [dinordrin]
blocking of [H^3-E2] binding to GST-ER-α-LBD on beads [3]: 63.2±5.7%
increase of Bcl-2 mRNA transcription [4]: 147.2%±22.73%

CC(C)Oc1ccc2c(=O)c(-c3ccccc3)coc2c1 [ipriflavone]
body mass [2]: increased
total cholesterol (TC) in liver [2]: no change
triglyceride (TG) in liver [2]: no change

O=C(c1ccc(OCCN2CCCCC2)cc1)c1c(-c2ccc(O)cc2)sc2cc(O)ccc12 [raloxifene]
expression of ApoD [5]: enhance expression of ApoD

CC/C(=C(\c1ccccc1)c1ccc(OCCN(C)C)cc1)c1ccccc1 [tamoxifen]
Bcl-2 protein expression ([4]; 7.5 μM, western blotting): inhibit Bcl-2 expression
Bcl-2 protein expression [4, 16]: Neither tamoxifen nor anordrin or analog thereof (such as anordrin) were found to affect Bcl-2 protein expression
mRNA level of BRCA1 [5]: significantly inhibited
transcription of COX7a mRNA [5]: significantly inhibited
expression of ApoD [5]: enhance expression of ApoD
MDA-MB-231 cell growth (MDA-MB-231 cells [7]): no effect
glucose concentration of media / glucose consumption (MCF-7 cells [12]; MCF-7 cells): inhibition
binding to estrogen-binding complexes 4S and 8S [1]: bind both estrogen-binding complexes
endometrial epithelial cell proliferation [15]: induce proliferation
indicators of NASH syndrome (normal mice; [18]): increased indicators of NASH syndrome
liver TG levels (normal mice; [18]): increased
body mass (normal mice; tamoxifen 4.5 μg/g body mass per day, 9 weeks, normal mice): increase in body mass
